From patent US20110224231A1, “Novel Lactams as Beta Secretase Inhibitors” (Pfizer Inc., priority 2008, published 2011)

target: T1, soluble human BACE (Homo sapiens, UniProt P56817); assay: BACE activity Cell Free Assay (ELISA of cleaved synthetic APP substrate); format: biochemical
T1 construct: cells secreting human recombinant soluble BACE; made in house; conditioned medium
Procedure: A synthetic APP substrate that can be cleaved by beta˜secretase and having N-terminal biotin is used to assay beta-secretase activity in the presence or absence of the inhibitory compounds. […] The substrate and test compounds are added to 384 well polypropylene plates. The reaction is initiated by the addition of soluble BACE enzyme to a final volume of 12.5 μL per well. The final assay conditions are: 0.001˜300 μM compound inhibitor, 0.05M sodium acetate (pH 4.5), 3 μM substrate, soluble human BACE, and 2% DMSO. Concentrated conditioned media from cells secreting human recombinant soluble BACE was titrated to provide a source of BACE enzyme. The cell media can be used as either a crude BACE prep or BACE can be purified using any number of techniques, including immobilized BACE inhibitor purification columns. The assay mixture is incubated for 1 hour at 37° C., and the reaction is quenched by the addition of an equal volume of 0.1M Tris, pH 8. Half of the quenched mix is incubated on clear streptavidin coated 384 well polystyrene plates for 1 hour. An ELISA is then performed using an in˜house antibody that specifically recognizes the new C˜terminus created after cleavage by BACE. […] (These polyclonal antibodies were raised in rabbits by immunizing with antigen comprised of six amino acid residues present at the carboxy terminus of the wild-type soluble APPbeta sequence (NH2-ISEVKM-COOH) or seven amino acid residues present at the carboxy terminus of the Swedish mutation at the beta cleavage site (NH2-EISEVNL˜COOH) conjugated to keyhole limpet hemacyanin by methods known to those skilled in the art.) A secondary anti˜species Horseradish Peroxidase (HRP) conjugated antibody is then utilized. The readout, following assay development with TMB substrate and quenching with 0.09M sulfuric acid, is absorbance at 450 nm.

T1 sequence (P56817 46-457 limits assumed): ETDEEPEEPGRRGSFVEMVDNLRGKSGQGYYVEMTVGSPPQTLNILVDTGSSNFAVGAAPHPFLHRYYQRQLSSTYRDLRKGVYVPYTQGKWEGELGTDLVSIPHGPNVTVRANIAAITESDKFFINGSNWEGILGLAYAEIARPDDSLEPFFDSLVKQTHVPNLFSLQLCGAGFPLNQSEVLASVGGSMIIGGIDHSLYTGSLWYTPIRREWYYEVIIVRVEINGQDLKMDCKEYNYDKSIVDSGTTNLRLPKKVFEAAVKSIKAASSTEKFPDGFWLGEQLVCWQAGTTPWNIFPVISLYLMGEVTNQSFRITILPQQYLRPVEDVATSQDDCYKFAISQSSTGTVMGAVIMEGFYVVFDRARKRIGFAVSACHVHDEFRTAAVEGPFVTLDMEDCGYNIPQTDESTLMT

Row | SMILES | IC50 [µM]
1 | CC1CC2(C=CC(=O)N2c2cccc(F)c2)CCN1Cc1cccc(-c2ccc(C(F)(F)F)cn2)c1 (racemic) [Example 30, Racemic (5R,7S),(5S,7R)-1-(3-fluorophenyl)-7-methyl-8-{3-[5-(trifluoromethyl)pyridin-2-yl]benzyl}-1,8-diazaspiro[4.5]dec-3-en-2-one] | 100 to 300
2 | CCNc1ccc(CN2CCC3(C=CC(=O)N3c3cccc(F)c3)CC2C)cn1 (racemic) [Example 31, Racemic (5R,7S),(5S,7R)-8-{[6-(ethylamino)pyridin-3-yl]methyl}-1-(3-fluorophenyl)-7-methyl-1,8-diazaspiro[4.5]dec-3-en-2-one] | 100 to 300
3 | CCCNc1ccc(CN2CCC3(C=CC(=O)N3c3cccc(F)c3)CC2C)cn1 (racemic) [Example 32, Racemic (5R,7S),(5S,7R)-1-(3-fluorophenyl)-7-methyl-8-{[6-(propylamino)pyridin-3-yl]methyl}-1,8-diazaspiro[4.5]dec-3-en-2-one] | 100 to 300
4 | CCOc1cccc(CN2CCC3(CCC(=O)N3c3cccc(F)c3)CC2C)c1 (racemic) [Example 33, Racemic (5R,7S),(5S,7R)-8-(3-ethoxybenzyl)-1-(3-fluorophenyl)-7-methyl-1,8-diazaspiro[4.5]decan-2-one] | 100 to 300
5 | Cc1ccc(Oc2cccc(CN3CCC4(CCC(=O)N4c4cccc(F)c4)CC3C)c2)cc1 (racemic) [Example 34, Racemic (5R,7S),(5S,7R)-1-(3-fluorophenyl)-7-methyl-8-[3-(4-methylphenoxy)benzyl]-1,8-diazaspiro[4.5]decan-2-one] | 10 to 100
6 | COc1ccc(Oc2cccc(CN3CCC4(CCC(=O)N4c4cccc(F)c4)CC3C)c2)cc1 (racemic) [Example 35, Racemic (5R,7S),(5S,7R)-1-(3-fluorophenyl)-8-[3-(4-methoxyphenoxy)benzyl]-7-methyl-1,8-diazaspiro[4.5]decan-2-one] | 10 to 100
7 | CC1CC2(CCC(=O)N2c2cccc(F)c2)CCN1Cc1cccc(S(=O)(=O)N2CCCC2)c1 (racemic) [Example 36, Racemic (5R,7S),(5S,7R)-1-(3-fluorophenyl)-7-methyl-8-[3-(pyrrolidin-1-ylsulfonyl)benzyl]-1,8-diazaspiro[4.5]decan-2-one] | 100 to 300
8 | CC1CC2(CCC(=O)N2c2cccc(F)c2)CCN1Cc1ccc(O)cc1 (racemic) [Example 37, Racemic (5R,7S),(5S,7R)-1-(3-fluorophenyl)-8-(4-hydroxybenzyl)-7-methyl-1,8-diazaspiro[4.5]decan-2-one] | 10 to 100
9 | Cc1cc(CN2CCC3(CCC(=O)N3c3cccc(F)c3)CC2C)ccc1O (racemic) [Example 38, Racemic (5R,7S),(5S,7R)-1-(3-fluorophenyl)-8-(4-hydroxy-3-methylbenzyl)-7-methyl-1,8-diazaspiro[4.5]decan-2-one] | 10 to 100
10 | CCCn1nccc1CN1CCC2(CCC(=O)N2c2cccc(F)c2)CC1C (racemic) [Example 39, Racemic (5R,7S),(5S,7R)-1-(3-fluorophenyl)-7-methyl-8-[(1-propyl-1H-pyrazol-5-yl)methyl]-1,8-diazaspiro[4.5]decan-2-one] | 100 to 300
11 | CC1CC2(CCC(=O)N2c2cccc(F)c2)CCN1Cc1ccc2[nH]ccc2c1 (racemic) [Example 40, Racemic (5R,7S),(5S,7R)-1-(3-fluorophenyl)-8-(1H-indol-5-ylmethyl)-7-methyl-1,8-diazaspiro[4.5]decan-2-one] | 100 to 300
12 | CC1CC2(CCC(=O)N2c2cccc(F)c2)CCN1Cc1ccc(O)c(C#N)c1 (racemic) [Example 41, Racemic (5R,7S),(5S,7R)-1(3-fluorophenyl)-7-methyl-2-oxo-1,8-diazaspiro[4.5]dec-8-yl]methyl}-2-hydroxybenzonitrile] | 10 to 100
13 | COc1cc(CN2CCC3(CCC(=O)N3c3cccc(F)c3)CC2C)ccc1O (racemic) [Example 42, Racemic (5R,7S),(5S,7R)-1-(3-fluorophenyl)-8-(4-hydroxy-3-methoxybenzyl)-7-methyl-1,8-diazaspiro[4.5]decan-2-one] | 10 to 100
14 | COc1ccc(F)c(CN2CCC3(CCC(=O)N3c3cccc(F)c3)CC2C)c1 (racemic) [Example 43, Racemic (5R,7S),(5S,7R)-8-(2-fluoro-5-methoxybenzyl)-1-(3-fluorophenyl)-7-methyl-1,8-diazaspiro[4.5]decan-2-one] | 100 to 300
15 | CC1CC2(CCC(=O)N2c2cccc(F)c2)CCN1Cc1ccc(O)c(Cl)c1 (racemic) [Example 44, Racemic (5R,7S),(5S,7R)-8-(3-chloro-4-hydroxybenzyl)-1-(3-fluorophenyl)-7-methyl-1,8-diazaspiro[4.5]decan-2-one] | 10 to 100
16 | CC(C)Oc1cccc(CN2CC[C@]3(CCC(=O)N3c3cccc(F)c3)C[C@@H]2C)c1 (racemic) [Example 45, Racemic (5R,7S),(5S,7R)-1-(3-fluorophenyl)-8-(3-isopropoxybenzyl)-7-methyl-1,8-diazaspiro[4.5]decan-2-one] | 10 to 100
17 | CCCOc1cccc(CN2CCC3(CCC(=O)N3c3cccc(F)c3)CC2C)c1 (racemic) [Example 46, Racemic (5R,7S),(5S,7R)-1-(3-fluorophenyl)-7-methyl-8-(3-propoxybenzyl)-1,8-diazaspiro[4.5]decan-2-one] | 10 to 100
18 | CCCCOc1cccc(CN2CCC3(CCC(=O)N3c3cccc(F)c3)CC2C)c1 (racemic) [Example 47, Racemic (5R,7S),(5S,7R)-8-(3-butoxybenzyl)-1-(3-fluorophenyl)-7-methyl-1,8-diazaspiro[4.5]decan-2-one] | 100 to 300
19 | CC(C)COc1cccc(CN2CCC3(CCC(=O)N3c3cccc(F)c3)CC2C)c1 (racemic) [Example 48, Racemic (5R,7S),(5S,7R)-1-(3-fluorophenyl)-8-(3-isobutoxybenzyl)-7-methyl-1,8-diazaspiro[4.5]decan-2-one] | 100 to 300
20 | CC1CC2(CCC(=O)N2c2cccc(F)c2)CCN1Cc1cccc(-c2cccnc2)c1 (racemic) [Example 49, Racemic (5R,7S),(5S,7R)-1-(3-fluorophenyl)-7-methyl-8-(3-pyridin-3-ylbenzyl)-1,8-diazaspiro[4.5]decan-2-one] | 100 to 300
21 | CC1CC2(CCC(=O)N2c2cccc(F)c2)CCN1Cc1cccc(OC2CCCC2)c1 (racemic) [Example 50, Racemic (5R,7S),(5S,7R)-8-[3-(cyclopentyloxy)benzyl]-1-(3-fluorophenyl)-7-methyl-1,8-diazaspiro[4.5]decan-2-one] | 100 to 300
22 | Cc1ccncc1-c1cccc(CN2CCC3(CCC(=O)N3c3cccc(F)c3)CC2C)c1 (racemic) [Example 51, Racemic (5R,7S),(5S,7R)-1-(3-fluorophenyl)-7-methyl-8-[3-(4-methylpyridin-3-yl)benzyl]-1,8-diazaspiro[4.5]decan-2-one] | 10 to 100
23 | CC1CC2(CCC(=O)N2c2cccc(F)c2)CCN1Cc1cccc(Oc2ccccc2)c1 (racemic) [Example 52, Racemic (5R,7S),(5S,7R)-1-(3-fluorophenyl)-7-methyl-8-(3-phenoxybenzyl)-1,8-diazaspiro[4.5]decan-2-one] | 10 to 100
24 | CC1CC2(CCC(=O)N2c2cccc(F)c2)CCN1Cc1cc(Br)ccc1F (racemic) [Example 53, Racemic (5R,7S),(5S,7R)-8-(5-bromo-2-fluorobenzyl)-1-(3-fluorophenyl)-7-methyl-1,8-diazaspiro[4.5]decan-2-one] | 100 to 300
